# Test results reported in US20060052344A1, “Heterocyclic silicon compounds and their use in the treatment of diseases or conditions associated with gnrh (gonadotropin-releasing hormone)” (priority 2002, published 2006).
# Where “and” joins values, the source holds several entries; their conditions need not be identical. Identical values can stand only once.
smiles,measurement,value
COc1cc(OC)c(NC(=O)c2ccc(Cc3cc4c(cc3C)[Si](C)(C)CC[Si]4(C)C)o2)c(OC)c1,melting point,139 °C and 139 to 140 °C
